Entries after “also recorded” stand apart in the source; their conditions may differ. Like-named read-outs stand apart in the source and are kept apart here.
Experiments:
[1] = system: HTH VLUs (hard-to-heal venous leg ulcers); assay: Double-blind, randomised, placebo-controlled Phase I/II safety and pilot-dose response study of LL-37 in HTH VLUs; format: in vivo, human; settings: for Estimated healing rate constant (cm^2/day) Mean (95% C.I.): 25 μL/cm^2 topical every third day, 4 weeks, exponential decay model, placebo 0.007
Experimental: A double-blind, randomised, placebo-controlled, Phase I/II safety and pilot-dose response study was conducted on human subjects. The first subject was enrolled in August 2012 and the last subject completed in April 2013.
Study subjects comprised either male subjects of at least 18 years of age, or post-menopausal or clinically sterile women, with VLUs or combined venous-arterial ulcers with a predominant venous component.
Target wounds with an area greater than 30 cm^2 and less than 2 cm^2 were excluded initially. However, in order to increase the inclusion rate and decrease the total study time, criteria were amended after randomisation of 21 subjects, to exclude areas greater than 40 cm^2 and less than 1 cm^2. If an eligible subject had more than one wound satisfying the entry criteria, the investigator identified the wound with the most appropriate size, shape and localisation as target wound. Only one wound per subject was treated in the study.
During the 3-week run-in period, subjects received, every third day (±1) and not more than two times per week, six applications (in total) of a placebo preparation (see below) in combination with standard compression bandaging (as defined by the Swedish MPA), comprising elastic bandaging and appropriate dressing to control wound exudation.
If the ulcerative area decrease was greater than between 7% and 13% (depending on size) per week relative to the start of the run-in period, the ulcer was not defined as HTH for the purposes of this study. In such cases, subjects were excluded from the study and the outcome was recorded as screening failure.
After a run-in period, 34 eligible subjects underwent baseline assessments before randomisation to receive active treatment (one of three treatment strengths) or placebo.
Following the above run-in period, a 4-week treatment period was initiated, including 8 visits, an end-of-treatment visit 3 days (±1 day) after the last treatment, and a follow-up visit after an additional 4 weeks (±1 to 7 days).
Subjects were randomised into four treatment groups to receive LL-37 (one of three alternative strengths), or placebo.
Wound bed preparation prior to treatment included debridement of non-viable tissue, treatment of clinical infection and selection of the most appropriate dressing (see below). The wound was cleaned using tap water, gently dried with a gauze pad and, if necessary, curettage was applied prior to application of the trial product or placebo.
0.7 mL of a sterile concentrate of LL-37 in water at concentrations of 2.5, 8 or 16 mg of LL-37 per mL was provided in sealed glass vials (APL, Umeå, Sweden), which were stored prior to the trial at between 2 and 8° C. Immediately before application to the wound, this was diluted with […] of a viscous diluent solution comprising 13.1% (w/w) of polyvinyl alcohol in acetate buffered saline (APL AB) to give final concentrations of either 0.5, 1.6 or 3.2 mg/mL, respectively. Placebo comprised exactly the same solution, but without LL-37 present.
The diluted viscous liquid solution of active treatment or placebo was applied topically at an amount of 25 μL/cm^2 with a 1 mL graded syringe at the centre of the cleansed and dried ulcer, and distributed evenly over the entire ulcer area using the rounded head of the syringe plunger that had been used in mixing the study drug.
After a 5-minute wait (to prevent LL-37 or placebo from being absorbed by the dressing material), the above procedure was followed by application of a dressing and a compression bandage.
The above procedure was repeated every third day (±1) over a 4 week treatment period, not more than two times per week, representing a total of eight applications.
The study assessed the rate of wound healing, pain at wound site both at the time of dressing and over the previous 24 hours using Visual Analogue Scale (VAS). […]

[2] = system: angiogenesis; settings: synthetic LL-37, subcutaneous injection; Koczulla et al 2003; cited from earlier work
[3] = system: wound healing; settings: topical treatment; mice treated with a corticosteroid; Ramos et al 2011; cited from earlier work
[4] = system: acute wounds of diabetic mice; settings: cited from earlier work
[5] = system: acute wounds; settings: synthetic LL-37, repeated topical administration in acute wounds; cited from earlier work

## LL-37
[1]; LL-37 0.5 mg/mL (13 μg per cm^2 of wound area) every third day
  wound healing response (conclusion): marked and significant improvement in wound healing
[1]; LL-37 0.5 mg/mL
  Estimated healing rate constant (cm^2/day) Mean (95% C.I.): 0.039 cm^2/day
[1]; LL-37 0.5 mg/mL, p<0.001, FIG. 1
  broken stick analysis: reduction in wound area after randomisation versus run-in: statistically significant improved healing
[1]; LL-37 1.6 mg/mL (40 μg per cm^2 of wound area) every third day
  wound healing response (conclusion): marked and significant improvement in wound healing
[1]; LL-37 1.6 mg/mL
  Estimated healing rate constant (cm^2/day) Mean (95% C.I.): 0.019 cm^2/day
[1]; LL-37 1.6 mg/mL, from randomization to the end of the study
  mean reduction in wound area: 5.29 cm^2
[1]; LL-37 1.6 mg/mL, p=0.011, FIG. 1
  broken stick analysis: reduction in wound area after randomisation versus run-in: statistically significant improved healing
[1]; LL-37 3.2 mg/mL, 80 μg/cm^2 every third day (26.7 μg/cm^2 for each day)
  clinical benefit in chronic ulcers: do not effectively treat chronic ulcers; also recorded: no clinical benefit
[1]; LL-37 3.2 mg/mL
  Estimated healing rate constant (cm^2/day) Mean (95% C.I.): 0.004 cm^2/day
[1]; Visit 1 (Screening), before treatment, LL-37 0.5 mg/mL group (N = 8)
  Wound Area (cm^2), Mean ± S.D: 4.59 ± 2.024 cm^2
[1]; Visit 1 (Screening), before treatment, LL-37 1.6 mg/mL group (N = 9)
  Wound Area (cm^2), Mean ± S.D: 7.84 ± 4.789 cm^2
[1]; Visit 1 (Screening), before treatment, LL-37 3.2 mg/mL group (N = 8)
  Wound Area (cm^2), Mean ± S.D: 8.41 ± 6.450 cm^2
[1]; Visit 3 (placebo run-in), LL-37 0.5 mg/mL group (N = 8)
  Wound Area (cm^2), Mean ± S.D: 4.39 ± 1.995 cm^2
[1]; Visit 3 (placebo run-in), LL-37 1.6 mg/mL group (N = 9)
  Wound Area (cm^2), Mean ± S.D: 8.14 ± 4.997 cm^2
[1]; Visit 3 (placebo run-in), LL-37 3.2 mg/mL group (N = 8)
  Wound Area (cm^2), Mean ± S.D: 7.83 ± 6.163 cm^2
[1]; Visit 6 (Randomisation), baseline, LL-37 0.5 mg/mL group (N = 8)
  Wound Area (cm^2), Mean ± S.D: 5.11 ± 1.732 cm^2
[1]; Visit 6 (Randomisation), baseline, LL-37 1.6 mg/mL group (N = 9)
  Wound Area (cm^2), Mean ± S.D: 7.69 ± 4.072 cm^2
[1]; Visit 6 (Randomisation), baseline, LL-37 3.2 mg/mL group (N = 8)
  Wound Area (cm^2), Mean ± S.D: 8.50 ± 6.919 cm^2
[1]; Visit 8, LL-37 0.5 mg/mL (N = 8)
  Wound Area (cm^2), Mean ± S.D: 3.89 ± 1.329 cm^2
[1]; Visit 8, LL-37 1.6 mg/mL (N = 9)
  Wound Area (cm^2), Mean ± S.D: 5.83 ± 2.156 cm^2
[1]; Visit 8, LL-37 3.2 mg/mL (N = 8)
  Wound Area (cm^2), Mean ± S.D: 7.95 ± 6.270 cm^2
[1]; Visit 10, LL-37 0.5 mg/mL (N = 8)
  Wound Area (cm^2), Mean ± S.D: 3.18 ± 1.549 cm^2
[1]; Visit 10, LL-37 1.6 mg/mL (N = 9)
  Wound Area (cm^2), Mean ± S.D: 5.34 ± 1.943 cm^2
[1]; Visit 10, LL-37 3.2 mg/mL (N = 8)
  Wound Area (cm^2), Mean ± S.D: 7.03 ± 5.063 cm^2
[1]; Visit 12, LL-37 0.5 mg/mL (N = 8)
  Wound Area (cm^2), Mean ± S.D: 2.26 ± 1.061 cm^2
[1]; Visit 12, LL-37 1.6 mg/mL (N = 9)
  Wound Area (cm^2), Mean ± S.D: 4.59 ± 2.266 cm^2
[1]; Visit 12, LL-37 3.2 mg/mL (N = 8)
  Wound Area (cm^2), Mean ± S.D: 5.93 ± 5.317 cm^2
[1]; Visit 14, LL-37 0.5 mg/mL (N = 8)
  Wound Area (cm^2), Mean ± S.D: 1.93 ± 1.262 cm^2
[1]; Visit 14, LL-37 1.6 mg/mL (N = 9)
  Wound Area (cm^2), Mean ± S.D: 3.86 ± 3.029 cm^2
[1]; Visit 14, LL-37 3.2 mg/mL (N = 8)
  Wound Area (cm^2), Mean ± S.D: 5.89 ± 4.784 cm^2
[1]; Visit 15 (End of Treatment), LL-37 0.5 mg/mL (N = 8)
  Wound Area (cm^2), Mean ± S.D: 1.98 ± 1.276 cm^2
[1]; Visit 15 (End of Treatment), LL-37 1.6 mg/mL (N = 9)
  Wound Area (cm^2), Mean ± S.D: 3.34 ± 3.166 cm^2
[1]; Visit 15 (End of Treatment), LL-37 3.2 mg/mL (N = 8)
  Wound Area (cm^2), Mean ± S.D: 5.85 ± 4.648 cm^2
[1]; Visit 16 (End of Study, follow-up approx. 4 weeks after last treatment), LL-37 0.5 mg/mL (N = 8)
  Wound Area (cm^2), Mean ± S.D: 1.33 ± 1.209 cm^2
[1]; Visit 16 (End of Study, follow-up approx. 4 weeks after last treatment), LL-37 1.6 mg/mL (N = 9)
  Wound Area (cm^2), Mean ± S.D: 2.40 ± 3.269 cm^2
[1]; Visit 16 (End of Study, follow-up approx. 4 weeks after last treatment), LL-37 3.2 mg/mL (N = 8)
  Wound Area (cm^2), Mean ± S.D: 6.19 ± 4.770 cm^2
[1]; highest dose, LL-37 3.2 mg/mL
  difference of estimated healing rate versus the placebo group: no statistically significant difference
[1]; highest dose, LL-37 3.2 mg/mL, FIG. 1
  broken stick analysis: post-randomisation rate versus run-in: No significant difference
[1]; intermediate dose, LL-37 1.6 mg/mL, p=0.088
  difference of healing rate constant (exponential decay model) versus the placebo group: 3 fold
[1]; lowest dose, LL-37 0.5 mg/mL, p=0.003
  difference of healing rate constant (exponential decay model) versus the placebo group: 6 fold
[2]
  effect on angiogenesis: stimulates angiogenesis
[3]
  effect on wound healing: stimulated wound healing
[4]; one study, Carretero et al 2008
  effect in acute wounds of diabetic mice: beneficial effect
[4]; other studies, Steinstraesser et al 2012
  effect in acute wounds of diabetic mice: failed to show an effect
[5]
  effect on inflammatory cells: attracts inflammatory cells to the surrounding tissue

From patent US10226508B2, “Treatment of chronic ulcers” (Promore Pharma AB, priority 2013, dated 2019)
